The test system of experiment [1] is HeLa. The experiment can be described thus: Antiviral activity against wild type HIV1 in HeLa-JC53 cells. The conditions noted are these: Homo sapiens. It counts as functional, cell-based.
Experiment [2] relates to HeLa. Nature of the experiment: Antiviral activity against HIV1 Y188L mutant in HeLa-JC53 cells. It counts as functional, cell-based.

The structures appear in SMILES notation. Where only a bound is given, the exact number is not on record here.

Broadly, the EC50 is the concentration that produces a half-maximal response. A lower EC50 goes with greater potency. For the molecule `Cc1nnc(SCC(=O)Nc2ccc(S(N)(=O)=O)cc2Cl)n1-c1cccc2cccnc12`, the EC50 with HeLa [1] is 4 nM; with HeLa [2], 2400 nM.

The molecule `Cc1ccc(-n2c(C)nnc2SCC(=O)Nc2cc(Cl)ccc2Cl)cc1` came in with a 50% effective concentration (EC50) in the experiment on HeLa [1] of 100 nM.

Turning to `Cc1ccc2ccc(C)c(-n3c(SCC(=O)Nc4ccc(S(N)(=O)=O)cc4Cl)nnc3C(F)(F)F)c2c1`, the half-maximal effective concentration (EC50) in the experiment on HeLa [1] was 3 nM; in the experiment on HeLa [2] it was 26 nM.

Take `Cc1nnc(SCC(=O)Nc2ccccc2Br)n1-c1ccc(N(C)C)c2ccccc12`: the 50% effective concentration (EC50) in the experiment on HeLa [1] was 0.4 nM; in the experiment with HeLa [2] it was 240 nM.

For `Cc1ccc(NC(=O)CSc2nnc(C)n2-c2cccc3cccnc23)c(Cl)c1`, the 50% effective concentration (EC50) with HeLa [1] stood at 8 nM; in the experiment on HeLa [2], 5700 nM.

With `COc1ccc(-n2c(C)nnc2SCC(=O)Nc2ccc(C)cc2Cl)c2ccccc12`, the EC50 came to 1 nM with HeLa [1] and 240 nM in the experiment on HeLa [2].

Regarding `Cc1ccc(NC(=O)CSc2nnc(C)n2-c2cccc(C(F)(F)F)c2)c(Cl)c1`, the EC50 in the experiment on HeLa [1] is more than 600 nM.

In the case of `Cc1ccc2c(C)cc(C)c(-n3c(C)nnc3SCC(=O)Nc3ccc(S(N)(=O)=O)cc3Cl)c2n1`, the figures for the EC50 with HeLa [1] and with HeLa [2] were 0.7 nM and 11 nM, respectively.

Consider `COc1cc(-n2c(C)nnc2SCC(=O)Nc2ccc(S(N)(=O)=O)cc2Cl)c2ncccc2c1`, for which the 50% effective concentration (EC50) in the experiment with HeLa [1] was 0.8 nM; in the experiment on HeLa [2] it was 370 nM.

Regarding `Cc1ccc(NC(=O)CSc2nnc(C)n2-c2cc(C)c(C)c3ccccc23)c(Cl)c1`, the half-maximal effective concentration (EC50) is 1 nM in the experiment on HeLa [1] and 160 nM in the experiment on HeLa [2].

In the case of `Cc1ccc(-n2c(SCC(=O)Nc3ccc(S(N)(=O)=O)cc3Cl)nnc2C(F)(F)F)c2ccccc12`, the 50% effective concentration (EC50) in the experiment on HeLa [1] was 0.4 nM; in the experiment on HeLa [2] it was 25 nM.

As for `COc1ccc(-n2c(C)nnc2SCC(=O)Nc2ccc(S(N)(=O)=O)cc2Cl)c2ccccc12`, the values for the EC50 in the experiment with HeLa [1] and in the experiment on HeLa [2] were 0.7 nM and 110 nM, respectively.

`Cc1ccc(-n2c(C)nnc2SCC(=O)Nc2ccc(Cl)cc2Cl)cc1`: the EC50 in the experiment on HeLa [1] is 5 nM. That is a single-digit nanomolar value.

In the case of `Cc1nnc(SCC(=O)Nc2ccc(S(N)(=O)=O)cc2Cl)n1-c1ccc(Cl)c2ccccc12`, the EC50 in the experiment on HeLa [1] came out at 1 nM; in the experiment with HeLa [2], 68 nM.

Take `NS(=O)(=O)c1ccc(NC(=O)CSc2nnc(C(F)(F)F)n2-c2cccc3ccccc23)c(Cl)c1`: the EC50 stood at 0.5 nM in the experiment on HeLa [1] and 49 nM with HeLa [2].

With `Cc1nnc(SCC(=O)Nc2ccccc2Br)n1-c1cccc2cccnc12`, the results for the EC50 in the experiment with HeLa [1] and in the experiment with HeLa [2] were 7 nM and 4200 nM, respectively.

With `Cc1ccc(NC(=O)CSc2nnc(C)n2-c2c(C)cc(C)c3ccccc23)c(Cl)c1`, the figures for the concentration for a half-maximal effect (EC50) with HeLa [1] and in the experiment on HeLa [2] were 1 nM and 90 nM, respectively.

`Cc1ccc2c(C)ccc(-n3c(SCC(=O)Nc4ccc(S(N)(=O)=O)cc4Cl)nnc3C(F)(F)F)c2c1`: the concentration for a half-maximal effect (EC50) in the experiment with HeLa [1] was found to be 6 nM; in the experiment with HeLa [2], 35 nM.

Consider `Cc1ccc2c(-n3c(C)nnc3SCC(=O)Nc3ccccc3Br)ccc(C)c2c1`, for which the EC50 with HeLa [1] worked out at 0.5 nM; with HeLa [2], 150 nM.

On to `Cc1nnc(SCC(=O)Nc2ccc(S(N)(=O)=O)cc2Cl)n1-c1ccc(N(C)C)c2ccccc12`, for which the EC50 amounted to 0.5 nM in the experiment on HeLa [1] and 88 nM in the experiment with HeLa [2].

Take `Cc1ccc(NC(=O)CSc2nnc(C)n2-c2cccc(Cl)c2)c(Cl)c1`: the concentration giving a half-maximal response (EC50) in the experiment with HeLa [1] was 260 nM.

Consider `COc1ccc(-n2c(SCC(=O)Nc3ccc(S(N)(=O)=O)cc3Cl)nnc2C(F)(F)F)c2ccccc12`, for which the 50% effective concentration (EC50) in the experiment on HeLa [1] was 0.4 nM; with HeLa [2] it was 14 nM.

For the molecule `Cc1cc2c(C)ccc(-n3c(C)nnc3SCC(=O)Nc3ccccc3Br)c2cc1C`, the EC50 was determined as 1 nM in the experiment on HeLa [1] and 110 nM in the experiment with HeLa [2].

`Cc1ccc2c(C)ccc(-n3c(C)nnc3SCC(=O)Nc3ccccc3Br)c2c1`: the EC50 in the experiment on HeLa [1] is 0.3 nM; in the experiment on HeLa [2], 12 nM.

Take `NS(=O)(=O)c1ccc(NC(=O)CSc2nnc(C(F)(F)F)n2-c2ccc(Cl)c3ccccc23)c(Cl)c1`: the EC50 in the experiment on HeLa [1] is 4 nM; in the experiment with HeLa [2], 41 nM.

With `Cc1ccc(-n2c(C)nnc2SCC(=O)Nc2ccc(S(N)(=O)=O)cc2Cl)c2ccccc12`, the concentration giving a half-maximal response (EC50) in the experiment on HeLa [1] was found to be 0.2 nM; in the experiment on HeLa [2] it was 20 nM.

In the experiment with HeLa [1], `Cc1cccc(-n2c(C)nnc2SCC(=O)Nc2ccc(C)cc2Cl)c1` came in with an EC50 of 110 nM.

The values are drawn from ChEMBL document CHEMBL1149511, “Tri-substituted triazoles as potent non-nucleoside inhibitors of the HIV-1 reverse transcriptase” (Bioorg Med Chem Lett, 2006).
